One data set relates to 966 SK cells. The data set is described as follows: Viability of 966 SK skin fibroblasts (MTT assay). Type of data set: cell-based, human. Particulars: 50 and 100 μM, 72 hours. The protocol:
(§1) To quantify cell death, around the time when significant and characteristic morphological changes took place, cells were pulse-labeled for 10 minutes with [^3H]thymidine to measure DNA activity as described elsewhere [Tomono, M. and Kiss, Z. (1995), “Ethanol enhances the stimulatory effects of insulin and insulin-like growth factor-I on DNA synthesis in NIH 3T3 fibroblasts,” Biochem. Biophys. Res. Commun. 208, 63-67]. Also, cells were collected as suspensions using trypsin, an established method in cell biology, followed by re-plating of cells in fresh tissue culture medium. If no viable cells were obtained after one week in culture, it meant that the cells at the time of re-plating were dead. Survival values obtained with untreated cells were considered 100%. For the determination of relative number of viable cells after treatments, in most cases the MTT assay was used. This calorimetric assay is based on the ability of living cells, but not dead cells, to reduce 3-(4,5-dimethyl thiazol-2-yl)-2,5-diphenyltetrazolium bromide [Carmichael, J, De Graff, W. G., Gazdar, A. F., Minna, J. D. and Mitchell, J. B. (1987), “Evaluation of tetrazolium-based semi-automated calorimetric assay: Assessment of chemosensitivity testing,” Cancer Res. 47, 936-942]. For this assay, cells were plated in 96-well plates, and the MTT assay was performed both in untreated and treated cell cultures. […]

For the next data set, the system named is 3A-SubE cells. The data set is described as follows: Viability of 3A-SubE post crisis placenta cells (MTT assay). It counts as cell-based. The conditions noted are these: 50 μM 48 hours, then 96 hours without CCDTHT. On the technique in general: Tetrazolium dyes change colour on reduction, which living cells bring about.
Another data set deals with AN3CA cells. The experiment in a line: Viability of AN3CA endometrial adenocarcinoma cells (MTT assay). It counts as cell-based, human. The conditions noted are these: 100 μM, 72 hours. Here is the method: as §1
For the next data set, the system named is CCF-STTG1 cells. The data set is described as follows: Viability of CCF-STTG1 astrocytoma cells (MTT assay). It counts as cell-based, human. Particulars: 100-200 μM, 72 hours. Here is the method:
as §1

Data set [1] has as its system HL-60, HT-168, PC-3 and T47D human tumor xenografts. The experiment in a line: Growth of HL-60, HT-168, PC-3 and T47D human tumor xenografts in mice. Type of data set: in vivo, mouse. Here is the method: Tumor volume was calculated according to the generally accepted formula: V=a^2×b×π/6, where “a” and “b” mean the shortest and longest diameter, respectively, of the measured tumor.
A general note: Xenograft models place foreign cells or tissue in a host animal.

The next data set has as its system U-87 cells. The experiment in a line: Viability of U-87 malignant glioma cells (MTT assay). Type of data set: cell-based, human. Particulars: 100-200 μM, 72 hours. Here is the method:
as §1

Like-named read-outs stand apart in the source and are kept apart here.

In the case of `CC[N+](C)(CC)CCOCc1ccc2sc3ccccc3c(=O)c2c1.[I-]` [CCDTHT, N,N-diethyl-N-methyl-2-[(9-oxo-9H-thioxanthen-2-yl)methoxy]-ethanaminium iodide], the “sensitivity compared with HaCaT cells, 966 SK fibroblasts” value in the data set on 966 SK cells was “significantly less sensitive”. Besides, the “reversibility: proliferation in fresh medium after treatment, 3A-SubE” value in the data set with 3A-SubE cells is listed as “not sufficient to suppress proliferation”. For the same compound, the “decrease in the number of viable cells versus 0.5 mM HC-3, AN3CA” value in the data set on AN3CA cells is listed as “much greater decreases in the number of viable cells compared to 0.5 mM HC-3”. For the same compound, the solubility in water result was “sufficiently soluble in water for injection” in “Solubility in water” and “soluble in water” in “Solubility in water” (listed as CCompound3). The “number of viable CCF-STTG1 cells” value in the data set with CCF-STTG1 cells was “sharply decrease”. In addition, the weight loss entry in data set [1] (50-400 μmole s.c. once daily) is on record as “In none of the cases did CCDTHT cause significant weight loss”. Moreover, the “growth of each tumor (HL-60, HT-168, PC-3, T47D)” value in data set [1] (200-400 μmole s.c. once daily) is “considerably reduced”. In addition, the “number of viable U-87 cells” value with U-87 cells was “sharply decrease”.

The values are drawn from patent US7943606B2, “Compositions and methods to control abnormal cell growth” (CanCure Laboratories, LLC, priority 2005, dated 2011).
